Measured values reported in patent US12077503B2, “Substituted cyclic amides and their use as herbicides” (FMC CORPORATION, priority 2015, dated 2024).
Like-named read-outs stand apart in the source and are kept apart here.

Columns and labels:
Format in all cases: in vivo
[1] = system: ducksalad (Heteranthera limosa); experiment: Test B flooded paddy test; conditions: Heteranthera limosa, Flood, 250 g ai/ha; scale of 0 to 100 where 0 is no effect and 100 is complete control; read-out: Ducksalad plant response rating
Procedure, shortened: (§1)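 Flooding to 3 cm over soil accompanied treatment, which consisted of adding compound to the standing water around 2-leaf plants; depth was then maintained. Visual assessment versus controls followed at 13 to 15 d (scale 0–100, 0 meaning no effect).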

[2] = system: rice (Oryra sativa); experiment: Test B flooded paddy test; conditions: Oryza sativa, Flood, 250 g ai/ha; scale of 0 to 100 where 0 is no effect and 100 is complete control; read-out: Rice plant response rating
Procedure, shortened: as §1

[3] = system: barnyardgrass (Echinochloa crus-galli); experiment: Test B flooded paddy test; conditions: Echinochloa crus-galli, Flood, 250 g ai/ha; scale of 0 to 100 where 0 is no effect and 100 is complete control; read-out: Barnyardgrass plant response rating
Procedure, shortened: as §1

[4] = system: sedge, umbrella (small-flower umbrella sedge, Cyperus difformis); experiment: Test B flooded paddy test; conditions: Cyperus difformis, Flood, 250 g ai/ha; scale of 0 to 100 where 0 is no effect and 100 is complete control; read-out: Sedge, Umbrella plant response rating
Procedure, shortened: as §1

[5] = system: pigweed (Amaranthus retroflexus); experiment: Test A preemergence; conditions: Amaranthus retroflexus, pre-emergence, 240 h; for pest or weed control at 125 g/ha: 125 g ai/ha, 0 to 100 scale where 0 is no effect and 100 is complete control; for pest or weed control at 500 g/ha: 500 g ai/ha
[6] = system: ragweed (common ragweed, Ambrosia elatior); experiment: Test A postemergence; conditions: Ambrosia artemisiifolia, post-emergence, 240 h, 125 g ai/ha
Procedure, shortened: (§2)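 Seeded soil received test chemicals as a preemergence directed spray, and seedlings at one to two leaves, 2–10 cm tall, received them postemergence, in a non-phytotoxic, surfactant-containing solvent mixture. Pots were held in a greenhouse for approximately 10 d, then rated for injury from 0, no effect, to 100, complete control.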

[7] = system: wheat (Triticum aestivum); experiment: Test A postemergence; conditions: Triticum aestivum, post-emergence, 240 h, 125 g ai/ha
Procedure, shortened: as §2

[8] = system: barnyardgrass (Echinochloa crus-galli); experiment: Test A postemergence; conditions: Echinochloa crus-galli, post-emergence, 240 h, 125 g ai/ha
Procedure, shortened: as §2

[9] = system: corn (Zea mays); experiment: Test A postemergence; conditions: Zea mays, post-emergence, 240 h, 125 g ai/ha; for plant injury at 125 g/ha: postemergence, visual injury rating after approximately 10 d, read-out: Corn plant response rating (0 to 100 scale, 0 no effect, 100 complete control); for Corn plant response rating (crop injury, 0 = no effect, 100 = complete kill) at 125 g/ha: Postemergence, visual injury after approximately 10 d, 0 to 100 scale where 0 is no effect and 100 is complete control
Procedure, shortened: as §2

[10] = system: giant foxtail (Setaria faberii); experiment: Test A postemergence; conditions: Setaria faberi, post-emergence, 240 h, 125 g ai/ha
Procedure, shortened: as §2

[11] = system: Kochia (Kochia scoparia); experiment: Test A postemergence; conditions: Bassia scoparia, post-emergence, 240 h, 125 g ai/ha
Procedure, shortened: as §2

[12] = system: blackgrass (Alopecurus myosuroides); experiment: Test A postemergence; conditions: Alopecurus myosuroides, post-emergence, 240 h, 125 g ai/ha
Procedure, shortened: as §2

[13] = system: Galium (catchweed bedstraw, Galium aparine); experiment: Test A postemergence; conditions: Galium, post-emergence, 240 h, 125 g ai/ha
Procedure, shortened: as §2

[14] = system: pigweed (Amaranthus retroflexus); experiment: Test A postemergence; conditions: Amaranthus retroflexus, post-emergence, 240 h, 125 g ai/ha
Procedure, shortened: as §2

[15] = system: ryegrass, Italian (Italian ryegrass, Lolium multiflorum); experiment: Test A postemergence; conditions: Lolium multiflorum, post-emergence, 240 h, 125 g ai/ha
Procedure, shortened: as §2

[16] = preemergence, read-out: Pigweed plant response rating
[17] = Preemergence, visual injury vs untreated controls after approximately 10 d, read-out: Pigweed plant response rating (0 to 100 scale where 0 is no effect and 100 is complete control)
[18] = postemergence, visual injury rating after approximately 10 d, read-out: Ragweed plant response rating (0 to 100 scale, 0 no effect, 100 complete control)
[19] = postemergence, visual injury rating after approximately 10 d, read-out: Wheat plant response rating (0 to 100 scale, 0 no effect, 100 complete control)
[20] = postemergence, visual injury rating after approximately 10 d, read-out: Barnyardgrass plant response rating (0 to 100 scale, 0 no effect, 100 complete control)
[21] = postemergence, visual injury rating after approximately 10 d, read-out: Foxtail, Giant plant response rating (0 to 100 scale, 0 no effect, 100 complete control)
[22] = postemergence, visual injury rating after approximately 10 d, read-out: Kochia plant response rating (0 to 100 scale, 0 no effect, 100 complete control)
[23] = postemergence, visual injury rating after approximately 10 d, read-out: Blackgrass plant response rating (0 to 100 scale, 0 no effect, 100 complete control)
[24] = postemergence, visual injury rating after approximately 10 d, read-out: Galium plant response rating (0 to 100 scale, 0 no effect, 100 complete control)
[25] = postemergence, visual injury rating after approximately 10 d, read-out: Pigweed plant response rating (0 to 100 scale, 0 no effect, 100 complete control)
[26] = postemergence, visual injury rating after approximately 10 d, read-out: Ryegrass, Italian plant response rating (0 to 100 scale, 0 no effect, 100 complete control)
[27] = Postemergence, visual injury after approximately 10 d, 0 to 100 scale where 0 is no effect and 100 is complete control, read-out: Plant response rating, Ragweed
[28] = Postemergence, visual injury after approximately 10 d, 0 to 100 scale where 0 is no effect and 100 is complete control, read-out: Plant response rating, Wheat
[29] = Postemergence, visual injury after approximately 10 d, 0 to 100 scale where 0 is no effect and 100 is complete control, read-out: Plant response rating, Barnyardgrass
[30] = Postemergence, visual injury after approximately 10 d, 0 to 100 scale where 0 is no effect and 100 is complete control, read-out: Plant response rating, Foxtail, Giant
[31] = Postemergence, visual injury after approximately 10 d, 0 to 100 scale where 0 is no effect and 100 is complete control, read-out: Plant response rating, Kochia
[32] = Postemergence, visual injury after approximately 10 d, 0 to 100 scale where 0 is no effect and 100 is complete control, read-out: Plant response rating, Blackgrass
[33] = Postemergence, visual injury after approximately 10 d, 0 to 100 scale where 0 is no effect and 100 is complete control, read-out: Plant response rating, Galium
[34] = Postemergence, visual injury after approximately 10 d, 0 to 100 scale where 0 is no effect and 100 is complete control, read-out: Plant response rating, Pigweed
[35] = Postemergence, visual injury after approximately 10 d, 0 to 100 scale where 0 is no effect and 100 is complete control, read-out: Plant response rating, Ryegrass, Italian

O=C1NC[C@H](c2cncc(C(F)(F)F)c2)[C@H]1C(=O)Nc1ccccc1F [Compound 887]
pest or weed control at 250 g/ha [1]: 65% | pest or weed control at 250 g/ha [2]: 0% | pest or weed control at 250 g/ha [3]: 50% | pest or weed control at 250 g/ha [4]: 0% | pest or weed control at 125 g/ha [5, 16]: 0% | pest or weed control at 500 g/ha [5, 17]: 0% | pest or weed control at 125 g/ha [6, 18]: 0% | plant injury at 125 g/ha [7, 19]: 0% | pest or weed control at 125 g/ha [8, 20]: 80% | plant injury at 125 g/ha [9]: 0% | pest or weed control at 125 g/ha [10, 21]: 70% | pest or weed control at 125 g/ha [11, 22]: 0% | pest or weed control at 125 g/ha [12, 23]: 0% | pest or weed control at 125 g/ha [13, 24]: 0% | pest or weed control at 125 g/ha [14, 25]: 0% | pest or weed control at 125 g/ha [15, 26]: 0%

Cc1cc(C)cc([C@H]2CN(C)C(=O)[C@@H]2C(=O)Nc2ccccc2F)c1 [Compound 910]
pest or weed control at 250 g/ha [1]: 85% | pest or weed control at 250 g/ha [2]: 0% | pest or weed control at 250 g/ha [3]: 70% | pest or weed control at 250 g/ha [4]: 0% | pest or weed control at 125 g/ha [5, 16]: 0% | pest or weed control at 500 g/ha [5, 17]: 30% | pest or weed control at 125 g/ha [6, 18]: 10% | plant injury at 125 g/ha [7, 19]: 0% | pest or weed control at 125 g/ha [8, 20]: 90% | plant injury at 125 g/ha [9]: 70% | pest or weed control at 125 g/ha [10, 21]: 90% | pest or weed control at 125 g/ha [11, 22]: 20% | pest or weed control at 125 g/ha [12, 23]: 50% | pest or weed control at 125 g/ha [13, 24]: 30% | pest or weed control at 125 g/ha [14, 25]: 0% | pest or weed control at 125 g/ha [15, 26]: 50%

CN1CC[C@H](c2ccc(F)cc2)[C@@H](C(=O)Nc2ccccc2F)C1=O [Compound 917]
pest or weed control at 250 g/ha [1]: 40% | pest or weed control at 250 g/ha [2]: 0% | pest or weed control at 250 g/ha [3]: 0% | pest or weed control at 250 g/ha [4]: 0% | pest or weed control at 125 g/ha [5, 16]: 0% | pest or weed control at 500 g/ha [5, 17]: 0% | pest or weed control at 125 g/ha [6, 27]: 0% | plant injury at 125 g/ha [7, 28]: 0% | pest or weed control at 125 g/ha [8, 29]: 0% | Corn plant response rating (crop injury, 0 = no effect, 100 = complete kill) at 125 g/ha [9]: 0% | pest or weed control at 125 g/ha [10, 30]: 0% | pest or weed control at 125 g/ha [11, 31]: 0% | pest or weed control at 125 g/ha [12, 32]: 0% | pest or weed control at 125 g/ha [13, 33]: 0% | pest or weed control at 125 g/ha [14, 34]: 0% | pest or weed control at 125 g/ha [15, 35]: 0%

C=CCOc1cccc(C2CN(C)C(=O)C2C(=O)Nc2cccc(F)c2F)c1 (stereo not drawn) [Compound 933]
pest or weed control at 250 g/ha [1]: 60% | pest or weed control at 250 g/ha [2]: 0% | pest or weed control at 250 g/ha [3]: 60% | pest or weed control at 250 g/ha [4]: 0% | pest or weed control at 125 g/ha [5, 16]: 30% | pest or weed control at 500 g/ha ([5]; preemergence, visual injury rating about 10 d after treatment, 0 to 100 scale (0 no effect, 100 complete control), read-out: Pigweed plant response rating): 30% | pest or weed control at 125 g/ha [6, 27]: 0% | plant injury at 125 g/ha [7, 28]: 20% | pest or weed control at 125 g/ha [8, 29]: 90% | Corn plant response rating (crop injury, 0 = no effect, 100 = complete kill) at 125 g/ha [9]: 40% | pest or weed control at 125 g/ha [10, 30]: 90% | pest or weed control at 125 g/ha [11, 31]: 50% | pest or weed control at 125 g/ha [12, 32]: 20% | pest or weed control at 125 g/ha [13, 33]: 50% | pest or weed control at 125 g/ha [14, 34]: 0% | pest or weed control at 125 g/ha [15, 35]: 40%

COc1cc([C@H]2CN(C)C(=O)[C@@H]2C(=O)Nc2ccccc2SC)cc(C(F)(F)F)c1 [Compound 857]
pest or weed control at 250 g/ha [1]: 80% | pest or weed control at 250 g/ha [2]: 0% | pest or weed control at 250 g/ha [3]: 60% | pest or weed control at 250 g/ha [4]: 80% | pest or weed control at 125 g/ha [5, 16]: 60% | pest or weed control at 500 g/ha [5, 17]: 70% | pest or weed control at 125 g/ha [6, 18]: 0% | plant injury at 125 g/ha [7, 19]: 30% | pest or weed control at 125 g/ha [8, 20]: 70% | plant injury at 125 g/ha [9]: 40% | pest or weed control at 125 g/ha [10, 21]: 70% | pest or weed control at 125 g/ha [11, 22]: 20% | pest or weed control at 125 g/ha [12, 23]: 30% | pest or weed control at 125 g/ha [13, 24]: 20% | pest or weed control at 125 g/ha [14, 25]: 30% | pest or weed control at 125 g/ha [15, 26]: 20%

CC(C)(C)c1ccc([C@H]2CNC(=O)[C@@H]2C(=O)Nc2cccc(F)c2F)cc1 [Compound 847]
pest or weed control at 250 g/ha [1]: 90% | pest or weed control at 250 g/ha [2]: 0% | pest or weed control at 250 g/ha [3]: 0% | pest or weed control at 250 g/ha [4]: 0% | pest or weed control at 125 g/ha [5, 16]: 0% | pest or weed control at 500 g/ha [5, 17]: 0% | pest or weed control at 125 g/ha [6, 18]: 0% | plant injury at 125 g/ha [7, 19]: 0% | pest or weed control at 125 g/ha [8, 20]: 0% | plant injury at 125 g/ha [9]: 0% | pest or weed control at 125 g/ha [10, 21]: 0% | pest or weed control at 125 g/ha [11, 22]: 0% | pest or weed control at 125 g/ha [12, 23]: 0% | pest or weed control at 125 g/ha [13, 24]: 0% | pest or weed control at 125 g/ha [14, 25]: 0% | pest or weed control at 125 g/ha [15, 26]: 0%
